Experimental data as given in US7652017B2, “Remedies and/or preventives for nervous system disorders” (Mitsubishi Tanabe Pharma Corporation, priority 1999, dated 2010).

How the values were obtained:
[1] = system: papillary muscle of the right ventricle; experiment: Inhibition of the cardiotonic action of isoproterenol in isolated papillary muscle; parameters: species or system guinea-pig; settings: Cavia porcellus, read-out: Inhibition (%) of developed tension increased by isoproterenol
Procedure: For the evaluation of the extent of inhibiting overaccumulation of intracellular calcium ions, inhibition of the cardiotonic action of isoproterenol by the compounds described in Table 1 and Table 2 as mentioned above was measured.
That is to say, since isoproterenol has been known to cause calcium ions overload by excessive calcium ions influx into cardiac myocytes (Fleckenstein A., Janke J., Doring H., Leder O.; Recent advances in Studies on cardiac structure and metabolism, Myocardial Biology, Vol. 4, pp. 563-580 (1974)), the compounds which inhibit the action of isoproterenol can inhibit intracellular calcium ions overload.
The papillary muscle of the right ventricle isolated from male Hartley guinea-pigs (body weight: 250 to 350 g) was suspended in an organ bath filled with a nutrient solution (Krebs-Henseleit solution). The temperature of the nutrient solution was maintained at 32° C., and the solution was aerated with a gas mixture of 95% oxygen and 5% carbon dioxide. The papillary muscle was applied with a resting tension of about 0.5 g, and stimulated with platinum electrodes by a rectangular pulse of a duration of 1 msec, a frequency of 1 Hz and a voltage higher by 15% than the threshold value. The developed tension of the papillary muscle was measured through a tension transducer and recorded with a polygraph system. After the preparation was stabilized for about 90 minutes, isoproterenol ( 10^−3 to 10^−7 M) was added into the organ bath so that developed tension could be increased by 100% or more, and at the point when the maximum response was obtained, the compounds of the present invention were added into the organ bath, and % inhibition of the developed tension increased by isoproterenol was measured.

[2] = Action on disturbance of passive avoidance behavior in rat (5-minute ischemia); assay type: in vivo
Procedure: Bilateral vertebral arteries of Wister male rats weighing 250 to 300 g were electrically cauterized before 48 hours from ischemic induction to prepare rats showing no neurological symptom such as hemiplegia. Only vertebral arteries of rats were cauterized to prepare rats as sham operation group. Before 30 minutes from ischemic induction, 0.1 mg/kg-b.w. or 1 mg/kg-b.w. of 5-methyl-2-(1-piperazinyl)benzenesulfonic acid monohydrate suspended in distilled water was administered orally to the rat of drug administration group and the equivalent dose of distilled water was administered to the rat of control group. The experiment was conducted by using the apparatus consisting of the bright room (50×50×50 cm) with 100 W lamp and the dark room (20×14×20 cm). The rat electrically cauterized bilateral vertebral arteries was put in the bright room to count the transit time to the dark room. The transit time was identified the reaction latency in the acquisition trial.
The guillotine door was closed when the rat entered into the dark room and the rat was given electrical shock (2.9 mA, 5 seconds) from the floor grid to finish the acquisition trial.
Ischemia was inducted by 5-minutes' bilateral occlusion of the common carotid arteries under ether anesthesia. […] During ischemia and after recirculation, until recovery of righting reflex, the rats were put on the heating mat to maintain their body temperature. After 48 hours from recirculation, the retention trial was conducted. As the same manner as the acquisition trial, the rat put in the bright room had been observed for at most 300 seconds to count the transit time to the dark room (the reaction latency).
(§1) The action on disturbance of passive avoidance in rat was observed by the same method as Example 1 except for intravenously administering 0.03 mg/kg-b.w. or 0.3 mg/kg-b.w. of 5-n-propyl-2-(1-piperazinyl)benzenesulfonic acid suspended in distilled water instead of 5-methyl-2-(1-piperazinyl)benzenesulfonic acid monohydrate as a drug.

[3] = system: hippocampus CA1 pyramidal cells; experiment: Action on delayed neuronal cell death in rat (10-minute forebrain ischemia); assay type: in vivo
Procedure: Bilateral vertebral arteries of Wister male rats weighing 250 to 300 g were electrically cauterized before 24 hours from ischemic induction to prepare rats showing no neurological symptom such as hemiplegia. Only vertebral arteries of rats were cauterized to prepare rats as sham operation group. Before 30 minutes from ischemic induction, 0.1 mg/kg-b.w. or 1 mg/kg-b.w. of 5-methyl-2-(1-piperazinyl)benzenesulfonic acid monohydrate suspended in distilled water was administered orally to the rat of drug administration group and the equivalent dose of distilled water was administered to the rat of control group.
Ischemia was inducted by 10-minutes' bilateral occlusion of the common carotid arteries under ether anesthesia. […] During ischemia and after recirculation, until recovery of righting reflex, the rats were put on the heating mat to maintain their body temperature. After 72 hours from recirculation, the brain of the rat was fixed by perfusion with a fixative, FAM (formalin:acetic acid:methanol ▭1:1:8). After that, it was embedded by paraffin and a 5 μm thick slice of the forebrain was prepared in an usual manner Haematoxylin stain was conducted and the number of hippocampus CA1 pyramidal cells were counted to obtain the number of the cells per mm (neuronal density). The number of hippocampus CA1 pyramidal cells in sham operation group was 166.0±6.7. After 10 minutes ischemia induction, the number of hippocampus CA1 pyramidal cells in control group (distilled water administration group) was 31.2±13.3 and about 80% of total neuronal cells were led into degeneration and necrosis. The number of hippocampus CA1 pyramidal cells in 0.1 and 1 mg/kg 5-methyl-2-(1-piperazinyl)benzenesulfonic acid monohydrate oral administration group was 74.3±16.0 and 104.1±21.9, respectively. Both of them inhibited neuronal cell death dose-dependently and there is a significant difference between 1 mg/kg administration group and the control group.
as §1, with “delayed neuronal cell death” for “disturbance of passive avoidance”

[4] = system: ischemic/reperfused myocardium; experiment: Regional cardiac function (% SS) in ischemic/reperfused myocardium in dogs; assay type: in vivo, dog; settings: 3 μg/kg i.v. 5 minutes before reperfusion; 30-min LAD occlusion, 1 h reperfusion
Procedure: The chest of mongrel dogs (adults, male and female) was opened under anesthesia with pentobarbital (30 mg/kg, i.v.) and a portion of the left coronary anterior descending (LAD) was dissected. A catheter-tip-pressure transducer (Millar; MPC-500) was inserted from the left carotid artery into the left ventricle to determine the left ventricular pressure and its first differential value (dP/dt). A pair of crystal probes were mounted in the LAD region to determine changes in regional segment length. Diastolic segment length (EDL; threshold point of dP/dt) and systolic segment length (ESL; dP/dt(−) max point) were determined from the waveform of dP/dt, and the regional segment shortening (% SS) in the ischemic/reperfused myocardium was calculated as follows: % SS=(EDL−ESL)/[…]×100
After hemodynamic stability is established following operation, the dissected portion of LAD was occluded for 30 minutes and then reperfused for 1 hour. At the same time, the cardiac function (% SS) in the above-described ischemic/reperfused region was continuously monitored throughout the protocol.
The animals were randomly grouped into two groups, one consisting of animals to be administered with 5-methyl-2-(1-piperazinyl)benzenesulfonic acid monohydrate (drug administration group; N=6) and the other of control group (N=6). […]

[5] = biological target: T1, sarcoplasmic reticulum calcium ion-ATPase (Canis lupus familiaris, UniProt O46674); experiment: Sarcoplasmic reticulum calcium ion-ATPase activity of myocardium fractions; assay type: biochemical, dog
T1 construct: their hearts were isolated and the myocardium in post-ischemic region and non-ischemic region the left ventricles were collected; from tissue; host or cells: dog left-ventricle myocardium (post-ischemic and non-ischemic regions), sarcoplasmic reticulum fraction
T1 sequence (O46674 whole entry): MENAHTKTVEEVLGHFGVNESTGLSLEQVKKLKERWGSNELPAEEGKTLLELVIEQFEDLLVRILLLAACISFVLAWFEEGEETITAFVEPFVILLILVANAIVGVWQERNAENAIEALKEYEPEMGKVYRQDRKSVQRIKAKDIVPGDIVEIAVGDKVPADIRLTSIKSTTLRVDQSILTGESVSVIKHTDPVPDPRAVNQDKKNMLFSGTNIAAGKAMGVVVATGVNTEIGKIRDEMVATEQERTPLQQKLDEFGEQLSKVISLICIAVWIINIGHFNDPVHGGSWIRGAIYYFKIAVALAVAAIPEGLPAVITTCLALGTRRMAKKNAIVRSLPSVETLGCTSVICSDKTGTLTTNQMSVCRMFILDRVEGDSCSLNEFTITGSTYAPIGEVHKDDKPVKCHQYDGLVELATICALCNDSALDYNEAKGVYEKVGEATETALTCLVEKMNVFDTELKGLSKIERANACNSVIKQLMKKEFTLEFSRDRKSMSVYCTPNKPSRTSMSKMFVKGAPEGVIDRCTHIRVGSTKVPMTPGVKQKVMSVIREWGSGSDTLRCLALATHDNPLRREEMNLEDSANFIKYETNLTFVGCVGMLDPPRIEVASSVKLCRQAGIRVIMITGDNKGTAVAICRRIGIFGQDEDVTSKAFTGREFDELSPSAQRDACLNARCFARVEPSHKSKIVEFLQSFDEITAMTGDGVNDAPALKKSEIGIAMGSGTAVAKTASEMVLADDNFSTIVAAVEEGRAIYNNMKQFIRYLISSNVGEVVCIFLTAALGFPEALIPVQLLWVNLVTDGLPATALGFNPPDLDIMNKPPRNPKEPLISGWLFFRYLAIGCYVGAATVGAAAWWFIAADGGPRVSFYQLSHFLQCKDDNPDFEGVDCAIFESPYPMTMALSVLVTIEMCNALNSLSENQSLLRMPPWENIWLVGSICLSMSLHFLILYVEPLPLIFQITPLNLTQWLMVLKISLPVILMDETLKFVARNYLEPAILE

`Cc1ccc(N2CCNCC2)c(S(=O)(=O)O)c1` [Compound 12, 5-methyl-2-(1-piperazinyl)benzenesulfonic acid] showed an inhibition at 1000 µM ([1]; drug concentration 10^−3 M) of 18.5%.

For `Cc1ccc(N2CCNCC2)c(S(=O)(=O)O)c1.O` [5-methyl-2-(1-piperazinyl)benzenesulfonic acid monohydrate], the “reaction latency in the retention trial” value ([2]; 0.1 mg/kg oral, 48 h after 5-min ischemia, control 71.4±29.4, sham 206.1±29.4) was 97.7 ± 31.2 s, the “reaction latency in the retention trial” value ([2]; 1 mg/kg oral, 48 h after 5-min ischemia, control 71.4±29.4, sham 206.1±29.4) was 139.0 ± 27.5 s and the “number of hippocampus CA1 pyramidal cells (neuronal density)” value (shortened to “number”) ([3]; 0.1 mg/kg oral 30 min before 10-min ischemia, 72 h after recirculation, control 31.2±13.3, sham 166.0±6.7) was 74.3±16.0 per mm. The “number” value ([3]; 1 mg/kg oral 30 min before 10-min ischemia, 72 h after recirculation, P<0.05 vs control 31.2±13.3) was 104.1±21.9 per mm, the “regional cardiac function (% SS) in post-reperfusion region compared to control group” value [4] was “significantly improved” and the “calcium ion-ATPase activity of sarcoplasmic reticulum, post-ischemic region” value ([5]; calcium ion concentration 10 μM, dogs given 3 μg/kg i.v. before reperfusion, control 0.070±0.004, P<0.05) was 0.090±0.008 μmol Pi/mg min. The “calcium ion-ATPase activity of sarcoplasmic reticulum, non-ischemic region” value ([5]; calcium ion concentration 10 μM, dogs given 3 μg/kg i.v. before reperfusion, control 0.089±0.009, no significant difference) was 0.088±0.006 μmol Pi/mg min.

In the case of `C/C=C(/C)C(=O)O[C@H]1C(C)=C2[C@H]([C@@H]1OC(=O)CCCCCCC)[C@@](C)(OC(C)=O)C[C@H](OC(=O)CCC)[C@@]1(O)[C@H]2OC(=O)[C@@]1(C)O` [Thapsigargin, reference compound], the “inhibition of sarcoplasmic reticulum calcium ion-ATPase activity” value ([5]; 1 μM added in vitro) is reported as “completely inhibited”.

In the case of `CCCc1ccc(N2CCNCC2)c(S(=O)(=O)O)c1` [Compound 14, 5-n-propyl-2-(1-piperazinyl)benzenesulfonic acid], the “reaction latency in the retention trial” value ([2]; 0.03 mg/kg intravenous, 5-min ischemia, P<0.001, control 88.2±18.1, sham 243.5±31.6) is reported as 253.4 ± 25.6 s, the “reaction latency in the retention trial” value ([2]; 0.3 mg/kg intravenous, 5-min ischemia, P<0.05, control 88.2±18.1, sham 243.5±31.6) is reported as 187.2 ± 36.1 s and the “reaction latency in the acquisition trial” value ([2]; every group (0.03 and 0.3 mg/kg intravenous, control, sham), no significant difference) is reported as “about 20 seconds”. The “number” value ([3]; 0.03 mg/kg, P<0.01, control 71.3±10.3, sham 177.8±5.3) was 125.1±5.7 per mm, the “number” value ([3]; 0.3 mg/kg, P<0.05, control 71.3±10.3, sham 177.8±5.3) was 131.9±9.9 per mm and the inhibition at 100 µM ([1]; drug concentration 10^−4 M) was 19.2%. The inhibition at 10 µM ([1]; drug concentration 10^−5 M) was 10.4%.
